Results as given in patent US9901615B2, “Method for treatment of gastric ulcers” (priority 2015, dated 2018).
Where no end group is shown, it is not given here.

Columns and labels:
[1] = Eye irritation test of Epi-1 in rabbits; conditions: for Reversibility: 7 days then recovery
Experimental: This study used healthy young adults of the New Zealand white albino rabbit breed. […] The eyes were examined on days 1, 3, 5, and 7, and then allowed to recover until day 14; at this time, clinical observation scores were recorded, and grades assigned for ocular reactions observed during each examination.

[2] = Dermal toxicity of TP4; format: in vivo, C3H/HeN mice; conditions: for appearance of the skin: mice, 48 h post-exposure, 125 mg/kg TP4 or 20% SDS (FIG. 17B)
Experimental: TP4 (125 mg/kg) was applied onto the mouse skin (topical).

[3] = Eye irritation test of TP4 in New Zealand White rabbits; format: in vivo; conditions: for ocular appearance: rabbits treated with 50 mg/kg TP4 or SDS for 7 days, observed daily (FIG. 17A); for Abnormality iris, grading / Chemosis, grading / Conjunctivae redness, grading / Corneal opacity, grading: rabbits, OECD 405 grading
Experimental: Healthy young adults rabbit eyes were treated with TP4, PBS (vehicle control), or 0.1% SDS (positive control). […] […] Clinical signs were recorded during the test period, and grades were assigned for ocular reactions during examination.

[4] = test system: H. pylori; experiment: Transmission electron microscopy (Epi-1); format: cell-based, Helicobacter pylori
Experimental: Transmission electron microscopy was used to examine Epi-1 induced morphological changes of H. pylori. The samples were fixed and processed as previously described. All samples were examined with an FEI Tecnai G2 F20 S-TWIN transmission electron microscope (FEI Company, Hillsboro, Oreg.) operating at an accelerating voltage of 80 kV. Images were recorded with a charge-coupled device camera at various magnifications.

[5] = test system: resistant clinical isolate CI-HC-028; experiment: Time-based susceptibility of resistant isolate to TP4 and antibiotics; format: cell-based, Helicobacter pylori; conditions: CI-HC-028, at MIC
Experimental: (§1) TP4 peptide solutions (100 μl) at concentrations corresponding to ¼, ½, 1, 2, and 4 fold the MIC were prepared and added to an equal volume of solution containing H. pylori counts of approximately 10^7 CFU mL-1 onto a microtitre plate. The plates were incubated at 37° C., and samples were collected at 1, 3, 6, 12, and 24 h and plated with appropriate dilutions onto blood agar plates; bacterial counts were enumerated and expressed as mean log (CFU mL-1) with standard error.
The bactericidal activities of TP4 and conventional antibiotics against resistant clinical isolate CI-HC-028 were compared. Certain resistant strains of H. pylori was previously reported to be resistant to metronidazole and clarithromycin 27. […] Thus, there is no correlation between multidrug resistant (MDR) phenotype and vulnerability to TP4.

[6] = test system: H. pylori; experiment: Development of drug resistance on passage at sub-inhibitory doses; format: cell-based, Helicobacter pylori; conditions: passages at sub-inhibitory doses in vitro
Description: A major driver of drug resistance development is inappropriate antibiotic use and poor compliance with therapeutic regimens. 28 Here, we established a model for simulating conditions of drug resistance emergence: bacteria were exposed to sub-inhibitory doses of antibiotics (AMOX, CLRN, METZ), or peptide TP4 in vitro (see supplementary material methods).

[7] = test system: H. pylori; experiment: Transmission electron microscopy (TP4); format: cell-based, Helicobacter pylori; conditions: 2 h post exposure
Experimental: Transmission electron microscopy (TEM) was used to examine the TP4 mechanism of action on H. pylori, overall cell morphology, TP4 translocation into H. pylori, and interaction of TP4 with internal targets. H. pylori overnight cultures from BHI-blood agar plates were collected, and 0.1 OD inocula were incubated with TP4, Amoxicillin, and/or PBS (PBS only: negative control). […] The cells were then fixed and processed for TEM using previously described methods, with some modifications. Briefly, cells were dehydrated in a graduated series of ethanol, followed by resin polymerization at 65° C. for 3 days. An EM ultramicrotome was used to slice thin sections of 70- to 80-nm thickness from the polymerized blocks, which were then loaded on 400-mesh copper grids. The sections were post stained with 2% uranyl acetate for 15 min and then lead citrate for 5 min, before being mounted for observation using an FEI Tecnai G2 F20 S-TWIN transmission electron microscope (FEI Company, Hillsboro, Oreg.) operating at 80 keV. […] Each grid was scrutinized with the same settings. Images were recorded with a 4MP SPOT Insight charge-coupled-device (CCD) camera.

[8] = test system: H. pylori ATCC 43504; format: cell-based, Helicobacter pylori
Experimental: (§2) H. pylori cells undergoing exponential growth were suspended in sterile phosphate-buffered saline (PBS), and adjusted to 0.05 OD using BHI broth; the inoculum was dispensed onto a microtitre plate. Peptide TP4 was prepared at various concentrations (0.04 to 50 μg mL-1) using PBS. Antibiotic resistant clinical isolate CI-HC-028 and three reference strains were used for susceptibility testing. The MIC was defined as the lowest concentration of the drug at which there was no visible growth. For quality control and comparative analyses, the susceptibility of all four H. pylori strains to the antibiotics amoxicillin, clarithromycin, and metronidazole were also examined.

[9] = test system: H. pylori ATCC 43629; format: cell-based, Helicobacter pylori
Experimental: as §2

[10] = test system: H. pylori ATCC 700392; format: cell-based, Helicobacter pylori
Experimental: as §2

[11] = test system: H. pylori clinical isolate CI-HC-028; experiment: Anti-H. pylori assessment in vitro (MIC), Example 2; format: cell-based, Helicobacter pylori; conditions: NE: No effect
Experimental: as §2

[12] = test system: H. pylori; experiment: Dose and time-dependent killing by TP4; format: cell-based, Helicobacter pylori; conditions: at 2×MIC
Experimental: as §1

[13] = Acute oral toxicity of TP4; design: species or system C3H/HeN mice; conditions: single oral dose, 10-fold the in vivo therapeutic dose, 24 hours
Experimental: (§3) Acute toxicity was assessed in C3H/HeN mice with 6 animals per group, by single oral administration of TP4 (125 mg/kg). […] Subacute toxicity: animals were administered with TP4 (600 μg dose/day) for 14 days. During dose administration, the animals were observed every day for any signs of toxicity for 28 days test period. The morbidity, mortality, and other clinical signs were recorded and assessed.

[14] = Sub-acute oral toxicity of TP4; format: in vivo, C3H/HeN mice; conditions: 3-fold therapeutic doses orally for 14 days, observed days 1 to 28
Experimental: as §3

[15] = Acute oral toxicity of Epi-1; format: in vivo; conditions: 125 mg/kg, mice
Experimental: Acute oral toxicity was assessed in mice with 6 animals per group, by single oral administration of Epi-1 at 125 mg/kg body weight. Animals were placed under observation for about 48 hr. The mortality, morbidity rate, and clinical signs were recorded.

[16] = Sub-acute oral toxicity of Epi-1; format: in vivo, mice
Experimental: Sub-acute oral toxicity was assessed with over a test period of 14 days in which mice were given 600 μg/mouse/day. During the study period, animals were observed daily for clinical signs and mortality.

[17] = 2.5 mg applied to skin, daily for 7 days, Balb/c mice
Experimental: Dermal toxicity was assessed in Balb/c mice, through administering daily doses of Epi-1 (2.5 mg/animal) for 7 days [40, 41]. Animals were kept under observation for a minimum of 48 h. Skin abnormalities were recorded.

Molecule: CCCCCCCCCCCCOS(=O)(=O)[O-].[Na+] [SDS, reference compound]
- Corneal opacity, Grade ([1]; rabbit eye, 7 days): 2
- Redness of conjunctivae, Grade ([1]; rabbit eye, 7 days): 1
- Reversibility ([1]; rabbit eye): No
- Iris lesion, Grade ([1]; rabbit, in vivo): 0
- appearance of the skin [2]: no obvious lesions were observed
- ocular appearance [3]: severe lacrimation, swelling of the eyelids, and elevated blood vessels in conjunctivae
- Abnormality iris, grading ([3]; Day 1): 0
- Chemosis, grading ([3]; Day 1): 1.5
- Conjunctivae redness, grading ([3]; Day 1): 1
- Corneal opacity, grading ([3]; Day 1): 1
- Abnormality iris, grading ([3]; Day 3): 0
- Chemosis, grading ([3]; Day 3): 1.5
- Conjunctivae redness, grading ([3]; Day 3): 1
- Corneal opacity, grading ([3]; Day 3): 1
- Abnormality iris, grading ([3]; Day 5): 0
- Chemosis, grading ([3]; Day 5): 2
- Conjunctivae redness, grading ([3]; Day 5): 1
- Corneal opacity, grading ([3]; Day 5): 1
- Abnormality iris, grading ([3]; Day 7): 0
- Chemosis, grading ([3]; Day 7): 2
- Conjunctivae redness, grading ([3]; Day 7): 1
- Corneal opacity, grading ([3]; Day 7): 1
- Abnormality iris, grading ([3]; Recovery, Day 14): 0
- Chemosis, grading ([3]; Recovery, Day 14): 1.5
- Conjunctivae redness, grading ([3]; Recovery, Day 14): 0.5
- Corneal opacity, grading ([3]; Recovery, Day 14): 0.5

Molecule: CC1(C)S[C@@H]2[C@H](NC(=O)[C@H](N)c3ccc(O)cc3)C(=O)N2[C@H]1C(=O)O [amoxicillin]
- morphology of H. pylori cells (TEM) [4]: low percentage of coccoid morphology
- killing ([5]; within 24 hr): 90%
- drug resistance index (MICp/MICs) [6]: increased slightly after passage 6, and remained constant thereafter
- ultrastructure of H. pylori cells (TEM) [7]: appeared as ‘ghost’ cells, with loose outer membranes

Molecule: CC[C@H]1OC(=O)[C@H](C)[C@@H](O[C@H]2C[C@@](C)(OC)[C@@H](O)[C@H](C)O2)[C@H](C)[C@@H](O[C@@H]2O[C@H](C)C[C@H](N(C)C)[C@H]2O)[C@](C)(OC)C[C@@H](C)C(=O)[C@H](C)[C@@H](O)[C@]1(C)O [clarithromycin]
- time taken to 90% reduction [5]: > 24 h
- drug resistance index (MICp/MICs) [6]: gradually increased from passage 3 to the last passage

Molecule: Cc1ncc([N+](=O)[O-])n1CCO [metronidazole]
- course of cell count ([5]; 24 h): initial decrease in cell count, but gradually lost activity
- drug resistance index (MICp/MICs) [6]: gradually increased from passage 3 to the last passage

Molecule: FDWDSVLKGVEGFVRGYF [TP1]
- MIC [8]: >12 µg/mL
- MIC [9]: >12 µg/mL
- MIC [10]: >12 µg/mL

Molecule: FIHHIIGGLFSAGKAIHRLIRRRRR [TP4, Nile tilapia piscidin 4] [listing 1 of 2 here]
- MIC [8]: 1.5 to 3 µg/mL
- MIC [9]: 1.5 to 3 µg/mL
- MIC [10]: 1.5 to 3 µg/mL
- MIC [11]: 1.5 to 3 µg/mL
- dose dependent effect against H. pylori (killing) [12]: 99.99%

Molecule: FIHHIIGGLFSAGKAIHRLIRRRRR [TP4, Nile tilapia piscidin 4] [listing 2 of 2 here]
- clinical signs, acute oral toxicity [13]: did not exhibit any abnormal clinical signs
- clinical complications, sub-acute oral toxicity [14]: did not induce clinical complications
- dermal toxicity ([2]; dermal exposure, 14 days observation period): No mortality or damaging effects were observed
- appearance of the skin [2]: no obvious lesions were observed
- ocular appearance [3]: no ocular lesions were detected
- Abnormality iris, grading ([3]; Day 1): 0
- Chemosis, grading ([3]; Day 1): 0
- Conjunctivae redness, grading ([3]; Day 1): 0
- Corneal opacity, grading ([3]; Day 1): 0
- Abnormality iris, grading ([3]; Day 3): 0
- Chemosis, grading ([3]; Day 3): 0.1
- Conjunctivae redness, grading ([3]; Day 3): 0
- Corneal opacity, grading ([3]; Day 3): 0
- Abnormality iris, grading ([3]; Day 5): 0
- Chemosis, grading ([3]; Day 5): 0.1
- Conjunctivae redness, grading ([3]; Day 5): 0.1
- Corneal opacity, grading ([3]; Day 5): 0.1
- Abnormality iris, grading ([3]; Day 7): 0
- Chemosis, grading ([3]; Day 7): 0.1
- Conjunctivae redness, grading ([3]; Day 7): 0
- Corneal opacity, grading ([3]; Day 7): 0.1
- Abnormality iris, grading ([3]; Recovery, Day 14): 0
- Chemosis, grading ([3]; Recovery, Day 14): 0
- Conjunctivae redness, grading ([3]; Recovery, Day 14): 0
- Corneal opacity, grading ([3]; Recovery, Day 14): 0

Molecule: FIHHIIGGLFSVGKHIHSLIHGH [TP3]
- MIC [8]: 8 to 12 µg/mL
- MIC [9]: 8 to 12 µg/mL
- MIC [10]: 8 to 12 µg/mL
- MIC [11]: 8 to 12 µg/mL

Molecule: GFIFHIIKGLFHAGKMIHGLV-NH2 [Epi-1, Epinecidin-1]
- clinical abnormalities, morbidity, death [15]: did not induce any clinical abnormalities, morbidity, or death
- whole blood biochemistry (GOT, GPT, BUN, CRE, TBIL, UA) ([16]; after acute and sub-acute oral administration): no significant changes
- clinical abnormalities, morbidity, death ([16]; sub-acute oral, 600 μg/mice): did not induce any clinical abnormalities, morbidity, or death
- ocular signs ([1]; days 2 and 3, 1 mg/eye/day): signs of lacrimation
- Corneal opacity, Grade ([1]; rabbit eye, 7 days): 0
- Iris lesion, Grade ([1]; rabbit eye, 7 days): 0
- Redness of conjunctivae, Grade ([1]; rabbit eye, 7 days): 0.1
- Reversibility ([1]; rabbit eye): yes
- dermal irritation, lesions, clinical signs [17]: did not cause any irritation, lesions, or clinical signs

Molecule: QLQGKQVSGEVVQKVLQELIQSVAKP [TP5]
- MIC [8]: >12 µg/mL
- MIC [9]: >12 µg/mL
- MIC [10]: >12 µg/mL
- MIC [11]: >12 µg/mL
